The values below come from paper PMC6858451, “Rhesus Theta Defensin 1 Promotes Long Term Survival in Systemic Candidiasis by Host Directed Mechanisms” (Scientific Reports, 2019).

The test system of one assay is C. albicans 43001. In words: Kinetics of candidacidal activity, liquid suspension assay. Type of assay: cell-based. Particulars: PIPES-glucose buffer. The protocol:
(§1) Kinetics of RTD-1 candidacidal activity was determined at peptide concentrations ranging from 0 to 10 µg/ml using a liquid suspension assay described previously. Overnight cultures of C. albicans 53264 or 43001 were grown to mid-log phase in 5% yeast peptone dextrose broth (YPD) (Difco) at 30 °C. Approximately 2 × 10^6 CFU/ml were incubated with 0, 0.3, 1, 3 and 10 µg/ml RTD-1 or 10 µg/ml caspofungin, suspended in 10 mM PIPES, pH 7.4, plus 5 mM glucose (PG), in 96-well plates with shaking at 60 RPM at 37 °C. At timed intervals, samples were diluted 1:1000 fold into PG buffer and aliquots plated onto YPD agar plates (TekNova), and surviving organisms quantified by colony counting after incubation for 24 h at 30 °C.

Assay [1] deals with C. albicans 53264. The assay is described as above. Type of assay: cell-based. Particulars: PIPES-glucose buffer. The protocol: as §1
Assay [2] has as its system C. albicans SC5314 biofilms. In words: Biofilm XTT metabolic assay. Type of assay: cell-based. The protocol: The antifungal activities of RTD-1, caspofungin and fluconazole were evaluated against biofilms of C. albicans SC5314 and 53264 essentially as described by Pierce et al.[67]. Briefly, biofilms established for 0 h (preadhesion), 2 h (adherent), or 24 h (mature) were developed by adding 1 × 10^5 yeast cells in 50 or 100 µl of RPMI-1640 to wells of flat-bottom 96-well microtiter plates (Costar, Corning, NY). Fifty or 100 µl aliquots of serial 2-fold dilutions of peptide or antifungal drugs were added to wells in triplicate and incubated for 24 h or 48 h prior to analysis of biofilm metabolic activities. Concentrations of reagents used were as follows: RTD-1 - 0.09 – 100 µg/ml (0.05–48 µM), Fluco – 1–250 µg/ml (3.3–816.3 µM); Caspo- 0.003–8 µg/ml ([…]–7.3 µM). Analysis of the effect of each agent on Candida biofilms was performed using an XTT colorimetric assay. One hundred µl of 1 µM XTT/menadione added to each biofilm well, plates were incubated in the dark for 3 h at 37 °C, and 80 µl of supernatant was transferred to a new 96-well flat-bottom microtiter plate (Greiner Bio-one, Monroe, NC). Absorbance was measured at 490 nm on a SpectraMax® i3x (Molecular Devices). Readings were plotted as average of triplicates after subtracting the corresponding values for negative controls (XTT/menadione only).

For the next assay, the system named is C. albicans SC5314. In words: Systemic candidiasis model, survival and renal fungal burden. In kind it is in vivo, BALB/c mice. The protocol: The efficacy of RTD-1 in vivo was evaluated in an established model of systemic candidiasis using C. albicans SC5314. Both immunocompetent and immunosuppressed mouse models are employed in preclinical studies of systemic candidiasis. Since many of our preliminary studies employed the […] model, we conducted efficacy studies with RTD-1 and reference antifungal drugs in immunocompetent BALB/c mice. Mice were challenged i.v. with 3 × 10^5 blastospores at T = 0, which rapidly produces disseminated candidiasis and colonizes major organs in a manner resembling systemic candidiasis in humans. […] We analyzed the effect of a single 5 mg/kg dose of RTD-1 administered i.v., s.c., or i.p. immediately after i.v. fungal challenge, with i.p. saline as vehicle control. Fluco and Caspo, administered i.p. at 5 mg/kg, were used as drug comparators. […] In subsequent studies, antifungal agents were administered i.p. to circumvent potentially confounding effects resulting from treatment by the same route as infection, which was i.v. in all experiments.
(§2) BALB/c female mice (7–8 weeks old) and CD-1 female mice (4–5 weeks old) were obtained from Charles River Laboratories and allocated randomly in groups of five mice per cage. Mice were maintained on a 12 h light/dark cycle in thermostatically controlled rooms for the duration of the experiment. C. albicans inocula were prepared fresh each day from saturated cultures grown overnight in YPD medium, washed in sterile PBS, and fungi were counted with hemocytometer. Stock suspensions were prepared in sterile PBS. BALB/c mice were challenged with 2 × 10^6 CFU/ml wild-type C. albicans reference strain SC5314, while CD-1 mice were challenged with 1.8 × 10^7 CFU/ml (0.15–0.2 ml) C. albicans clinical isolate 53264 by i.v. injection into the lateral caudal tail vein using a 28 G 1/2 inch needle. Animals were treated by i.v., s.c., or i.p. routes immediately post-infection (p.i.) or 24 h p.i. with sterile saline (control), RTD-1, fluconazole, or caspofungin administered at the concentrations indicated in a 0.200 ml. Mice were weighted and monitored daily for general clinical condition. Mice were euthanized as approved by the USC IACUC and in compliance with the National Institutes of Health Guide for the Care and Use of Laboratory Animals. All experiments were repeated at least three times.
(§3) To assess systemic fungal clearance, renal fungal burden was determined. Mice were euthanized at times indicated, and both kidneys were weighed, homogenized in 5 ml of sterile PBS, and serial dilutions of homogenate were plated on YPD agar plates and incubated at 30 °C for 2 days. CFU per gram of kidney was calculated.

The subject of assay [3] is C. albicans 53264. In words: Systemic MDR candidiasis model, survival and renal fungal burden. In kind it is in vivo, CD-1 mice. Particulars: for survival (log-rank): 1.8 × 10^7 blastospores i.v., 40 days. As for the experimental part:
(as in Fig. 3d). CD-1, rather than BALB/c mice were used in the C. albicans 53264 challenge studies as this mouse strain was employed by Wiederhold et al. in the assessment of caspofungin efficacy against this pathogen. […] Fungal burdens were determined in kidneys of long term survivors in the RTD-1, Caspo, and Fluco-treated cohorts (euthanized at day 40) and from moribund mice from the survival study in Fig. 7a.
as §2, §3

Where [4] appears, read: 5 mg/kg i.p. once a day for 7 days, first dose 24 h after infection, 30 d.
Setting [5] is: 5 mg/kg i.p. once per day for 7 days beginning 24 h p.i.
[6] abbreviates: 3 µg/ml, by 30 min of incubation.

“Also recorded” adds a separate entry of the source. Bridge positions count the residues as written; N and C are the ends. Peptide text beside a SMILES is read from it.

With `CC[C@H](C)C[C@H](C)CCCCCCCCC(=O)N[C@H]1C[C@@H](O)[C@@H](NCCN)NC(=O)[C@@H]2[C@@H](O)CCN2C(=O)[C@H]([C@H](O)CCN)NC(=O)[C@H]([C@H](O)[C@@H](O)c2ccc(O)cc2)NC(=O)[C@@H]2C[C@@H](O)CN2C(=O)[C@H]([C@@H](C)O)NC1=O` [Caspo, caspofungin], the “fungicidal activity, time-kill” value in the assay on C. albicans 43001 (10 µg/ml, 0–60 min) is “very little activity”; in the assay on C. albicans 53264 [1] (10 µg/ml, 0–60 min) it was “very little activity”. Further, the “biofilm inhibition (XTT)” value in assay [2] (2- and 24 h biofilms) is given as “reduced at concentrations >2 µg/ml”. The survival entry is “markedly enhanced survival” in the assay with C. albicans SC5314 (setting [4]); “effective in enhancing survival; also recorded: superior to RTD-1 and Fluco treatment” with C. albicans SC5314 (single 5 mg/kg dose at T = 0 (RTD-1 i.v., s.c. or i.p.; Fluco, Caspo i.p.), 3 × 10^5 blastospores i.v., 30 days, vs saline, 5 mg/kg). The “survival (log-rank)” value in the assay on C. albicans 53264 [3] (setting [5]) is “significantly (P < 0.0001) improved survival”.

With `CC[C@H](C)[C@@H]1NC(=O)[C@@H]2CSSC[C@H](NC(=O)[C@H](CCCNC(=N)N)NC(=O)[C@@H]3CSSC[C@H](NC1=O)C(=O)N[C@@H]([C@@H](C)O)C(=O)N[C@@H](CCCNC(=N)N)C(=O)NCC(=O)N[C@@H](Cc1ccccc1)C(=O)N3)C(=O)N[C@@H](CC(C)C)C(=O)N[C@H]1CSSC[C@H](NC(=O)[C@H](C(C)C)NC(=O)CNC(=O)[C@H](CCCNC(=N)N)NC(=O)[C@H](CCCNC(=N)N)NC1=O)C(=O)N[C@@H](CCCNC(=N)N)C(=O)N2` [RTD-1, Rhesus theta (θ) defensin-1] (cyclo(GFCRCLCRRGVCRCICTR); disulfide 3-16, 5-14, 7-12 (inferred); ring closure inferred), the “fungicidal activity, time-kill” value in the assay on C. albicans 43001 (setting [6]) and in the assay with C. albicans 53264 [1] (setting [6]) was “sterilized the incubation mixture” in each case. Further, the “biofilm inhibition (XTT)” value in assay [2] (2- and 24 h biofilms) is reported as “much more effective than Fluco”; in assay [2] (pre-adhesion, 2 h adherent and 24 h mature biofilms), “inhibited biofilms of drug sensitive SC5314 at each time point, but less effectively than Caspo”. Also, the survival entry was “markedly enhanced survival; also recorded: more effective in enhancing survival than Fluco, and was nearly equivalent to Caspo” in the assay with C. albicans SC5314 (setting [4]); “significantly enhanced survival regardless of the routes of administration” with C. albicans SC5314 (single 5 mg/kg dose at T = 0 (RTD-1 i.v., s.c. or i.p.; Fluco, Caspo i.p.), 3 × 10^5 blastospores i.v., 30 days, vs saline); “no survival enhancement” with C. albicans SC5314 (single i.p. 5 mg/kg, administration delayed 24 h or 72 h (data not shown)); “enhanced survival compared to saline control” with C. albicans SC5314 (single i.p. 5 mg/kg, treatment delayed 1, 3 or 6 h after infection); “significantly accelerates death” with C. albicans SC5314 (single i.p. dose 20 mg/kg at T = 0, vs saline); “less effective than Fluco” in the assay with C. albicans SC5314 (single i.p. dose 10 and 20 mg/kg at T = 0, compared with 5 mg/kg Fluco). Further, in the assay with C. albicans SC5314 (single i.p. dose at T = 0, all doses of 0.1–20 mg/kg except 0.1 and 20 mg/kg, vs saline), the survival entry was “enhanced survival significantly”. For the same molecule, in the assay on C. albicans SC5314 (long term survivors, day 30 p.i.), the “kidneys with no culturable organisms detected” value amounted to 50%. In addition, the “kidney fungal burden (CFU/g)” value was “markedly reduced kidney fungal burden; also recorded: substantially more effective than treatment with Fluco” in the assay with C. albicans SC5314 (long term survivors, day 30 p.i., treated i.p. at T = 0, vs moribund saline treated mice); “markedly reduced fungal burden” in the assay on C. albicans SC5314 (single 5 mg/kg i.p. at T = 0, by day 3 p.i., vs saline); “significantly (P = 4.1 × 10^−5) reduced fungal burden” with C. albicans 53264 [3] (long term survivors, day 40, vs moribund saline controls). Besides, in the assay with C. albicans 53264 [3] (setting [5]), the “survival endpoint analysis (χ2) at day 40 p.i.” value was “superior to Fluco (P = 0.01) and Caspo (P = 0.001)”. The “survival (log-rank)” value with C. albicans 53264 [3] (setting [5]) is “significantly (P < 0.0001) improved survival; also recorded: superior to Caspo (P = 0.029) but not Fluco”.
